The results in this text go back to article PMC9262797, “Spectrum and characterization of bi-allelic variants in MMAB causing cblB-type methylmalonic aciduria” (Human Genetics, 2021).

The target of series [1] is T1, MMAB (recombinant human MMAB, amino acids 56–250) (Homo sapiens, UniProt Q96EY8).
T1 construct: N-terminally truncated residues 56-250, mitochondrial leader omitted; homotrimer, native mass 78 kDa by SEC
T1 sequence (Q96EY8 56-250): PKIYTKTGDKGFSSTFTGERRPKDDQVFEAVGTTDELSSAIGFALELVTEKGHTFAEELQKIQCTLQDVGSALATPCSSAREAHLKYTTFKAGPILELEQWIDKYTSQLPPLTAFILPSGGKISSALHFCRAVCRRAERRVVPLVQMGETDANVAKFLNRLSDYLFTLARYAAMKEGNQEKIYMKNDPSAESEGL
Description: fluorescence titration (MMAB into […] MANT-ATP, ex […] / em […] nm). It is filed as binding.

In series [2] the target is T1, MMAB (recombinant human MMAB, amino acids 56–250). Nature of the series: isothermal titration calorimetry. The class given is binding.
Series [3] deals with the molecule itself. Description: SEC; analytical gel filtration, Superose 6 Increase 10/300 GL, Buffer A (100 mM HEPES pH 7.5, 300 mM KCl, 250 µM MgCl2, 5% glycerol); 100 µl of protein at 25 µM; calibrated with 29, 150 and 443 kDa standards. Background: Size exclusion chromatography separates by hydrodynamic size, large species first.

For orientation: Kd means the concentration at which binding is half-saturated. `CNc1ccccc1C(=O)O[C@H]1[C@@H](O)[C@H](n2cnc3c(N)ncnc32)O[C@@H]1CO[P@@](=O)(O)O[P@](=O)(O)OP(=O)(O)O` [MANT-ATP, 2',3'-O-(N-Methyl-anthraniloyl)-adenosine-5'-triphosphate]: in series [1], the Kd was found to be 21.1 ± 3.4 µM. As to `Nc1ncnc2c1ncn2[C@@H]1O[C@H](COP(=O)(O)OP(=O)(O)OP(=O)(O)O)[C@@H](O)[C@H]1O` [ATP], in series [2], the Kd worked out at 14.2 ± 0.6 µM.

B1: human methylmalonyl-CoA mutase (MMUT) (enzyme, UniProt P22033 33-750, looked up)
chain: LHQQQPLHPEWAALAKKQLKGKNPEDLIWHTPEGISIKPLYSKRDTMDLPEELPGVKPFTRGPYPTMYTFRPWTIRQYAGFSTVEESNKFYKDNIKAGQQGLSVAFDLATHRGYDSDNPRVRGDVGMAGVAIDTVEDTKILFDGIPLEKMSVSMTMNGAVIPVLANFIVTGEEQGVPKEKLTGTIQNDILKEFMVRNTYIFPPEPSMKIIADIFEYTAKHMPKFNSISISGYHMQEAGADAILELAYTLADGLEYSRTGLQAGLTIDEFAPRLSFFWGIGMNFYMEIAKMRAGRRLWAHLIEKMFQPKNSKSLLLRAHCQTSGWSLTEQDPYNNIVRTAIEAMAAVFGGTQSLHTNSFDEALGLPTVKSARIARNTQIIIQEESGIPKVADPWGGSYMMECLTNDVYDAALKLINEIEEMGGMAKAVAEGIPKLRIEECAARRQARIDSGSEVIVGVNKYQLEKEDAVEVLAIDNTSVRNRQIEKLKKIKSSRDQALAERCLAALTECAASGDGNILALAVDASRARCTVGEITDALKKVFGEHKANDRMVSGAYRQEFGESKEITSAIKRVHKFMEREGRRPRLLVAKMGQDGHDRGAKVIATGFADLGFDVDIGPLFQTPREVAQQAVDADVHAVGISTLAAGHKTLVPELIKELNSLGRPDILVMCGGVIPPQDYEFLFEVGVSNVFGPGTRIPKAAVQVLDDIEKCLEKKQQSV
notes: methylmalonyl-CoA mutase (MMUT), human, recombinant; also called apo-MMUT; holo-MMUT; source: recombinant, produced as previously described (Plessl et al. 2017), purified
As usually defined, the stoichiometry N is the number of molecules, sites or subunits per partner or assembly. With B1, in series [3], the “stoichiometry N” value is 2.

B2: human ATP:cob(I)alamin adenosyltransferase (MMAB), amino acids 56-250 (enzyme, UniProt Q96EY8 56-250, looked up)
chain: PKIYTKTGDKGFSSTFTGERRPKDDQVFEAVGTTDELSSAIGFALELVTEKGHTFAEELQKIQCTLQDVGSALATPCSSAREAHLKYTTFKAGPILELEQWIDKYTSQLPPLTAFILPSGGKISSALHFCRAVCRRAERRVVPLVQMGETDANVAKFLNRLSDYLFTLARYAAMKEGNQEKIYMKNDPSAESEGL
notes: ATP:cob(I)alamin adenosyltransferase (MMAB), human, N-terminally truncated, amino acids 56-250; same residues as in the human MMAB structure of Campanello et al. 2018; also called ATP:cobalamin adenosyltransferase; apo-MMAB; source: recombinant, produced as previously described (Plessl et al. 2017), purified
Turning to B2, the “stoichiometry N” value in series [3] was found to be 3.
